In patent publication US20250228239A1, “MOLECULES HAVING PESTICIDAL UTILITY, AND INTERMEDIATES, COMPOSITIONS, AND PROCESSES, RELATED THERETO” (priority 2024, published 2025):
Read-outs that look alike come from different tables or passages of the source.

Tests used:
[1] = system: Beet Armyworm (Spodoptera exigua, LAPHEG); assay: Bioassays on Beet Armyworm (BAW), 128-well diet tray assay; format: in vivo; conditions: Spodoptera exigua
Procedure, shortened: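 Test molecule was dissolved in 90:10 acetone-water and applied at 50 μg/cm^2 onto artificial diet in eight wells, then dried. Second instar larvae, one to five per well, were added, and trays were kept vented at 25° C. with a 14:10 photoperiod for five to seven days before mortality was recorded.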

[2] = system: Cabbage Looper (Trichoplusia ni, TRIPNI); assay: Bioassays on Cabbage Looper (CL), 128-well diet tray assay; format: in vivo; conditions: Trichoplusia ni
Procedure, shortened: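 Test molecule was dissolved in 90:10 acetone-water, applied to artificial diet at 50 μg/cm^2 and allowed to dry. Second-instar larvae were then added, one to five per well, and trays held at 25° C for five to seven days before mortality was scored and averaged.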

[3] = Table ABC: Biological Results, species BAW, read-out: BAW
[4] = Table ABC: Biological Results, species CL, read-out: CL
[5] = Beet Armyworm, Table ABC / ABC-DP rating, read-out: BAW rating
[6] = Cabbage Looper, Table ABC / ABC-DP rating, read-out: CL rating
[7] = Beet Armyworm, rating class, read-out: BAW
[8] = Cabbage Looper, rating class, read-out: CL

Row | Compound | pest or weed control at 50 µg/cm2 [1, 3] [%] | pest or weed control at 50 µg/cm2 [2, 4] [%] | pest or weed control at 50 µg/cm2 [1, 5] [%] | pest or weed control at 50 µg/cm2 [2, 6] [%] | pest or weed control at 50 µg/cm2 [1, 7] [%] | pest or weed control at 50 µg/cm2 [2, 8] [%] | further results
1 | O=C(Nc1c(F)ccc(NC(=O)C(F)(F)F)c1F)c1cc(NC(=O)[C@H]2[C@H](c3ccc(F)c(C(F)(F)F)c3)C2(Cl)Cl)cc(F)c1Cl [F1346, 2-Chloro-5-((1R,3R)-2,2-dichloro-3-(4-fluoro-3-(trifluoromethyl)phenyl)cyclopropane-1-carboxamido)-N-(2,6-difluoro-3-(2,2,2-trifluoroacetamido)phenyl)-3-fluorobenzamide] | 50 to 100 | 50 to 100 |  |  |  |  | 
2 | CC(C)(C)OC(=O)N(C(=O)OC(C)(C)C)c1c(F)ccc(NC(=O)c2cc(NC(=O)[C@H]3[C@H](c4ccc(F)c(Cl)c4)C3(Cl)Cl)cc(F)c2F)c1F (relative stereo) [F1211, trans-tert-Butyl-N-tert-butoxycarbonyl-N-[3-[[5-[[2,2-dichloro-3-(3-chloro-4-fluorophenyl)cyclopropanecarbonyl]amino]-2,3-difluorobenzoyl]amino]-2,6-difluorophenyl]carbamate] | 50 to 100 | 50 to 100 |  |  |  |  | 
3 | O=C(NCC(F)(F)F)c1cc(NC(=O)[C@H]2[C@H](c3ccc(F)c(F)c3)C2(Cl)Cl)ccc1Cl [F2099, 2-Chloro-5-((1R,3R)-2,2-dichloro-3-(3,4-difluorophenyl)cyclopropane-1-carboxamido)-N-(2,2,2-trifluoroethyl)benzamide] |  |  | 50 to 100 | 50 to 100 |  |  | 
4 | O=C(Nc1c(F)ccc(NC(=O)C2CCCO2)c1F)c1cc(NC(=O)[C@H]2[C@H](c3cc(Cl)c(Cl)c(Cl)c3)C2(Cl)Cl)cc(F)c1F (stereo partly drawn) [F1778, N-(3-(5-((1R,3R)-2,2-Dichloro-3-(3,4,5-trichlorophenyl)cyclopropane-1-carboxamido)-2,3-difluorobenzamido)-2,4-difluorophenyl)tetrahydrofuran-2-carboxamide] |  |  | 50 to 100 | 50 to 100 |  |  | 
5 | Nc1cc(F)ccc1NC(=O)c1cc(NC(=O)[C@H]2[C@H](c3ccc(Cl)c(Cl)c3)C2(Cl)Cl)ccc1Cl (relative stereo) [DP6, trans-N-(2-amino-4-fluorophenyl)-2-chloro-5-(2,2-dichloro-3-(3,4-dichlorophenyl)cyclopropane-1-carboxamido)benzamide] |  |  | 50 to 100 | 50 to 100 |  |  | mortality at 50 µg/cm2 ([1]; 168 h, second instar larvae, 50 μg/cm^2 of test molecule on artificial diet, 25° C., five to seven days, average of eight wells, read-out: BAW % Control (or Mortality) rating): 50 to 100%; mortality at 50 µg/cm2 ([2]; 168 h, second instar larvae, 50 μg/cm^2 of test molecule on artificial diet, 25° C., five to seven days, average of eight wells, read-out: CL % Control (or Mortality) rating): 50 to 100%
6 | CC(=O)Nc1c(Cl)ccc(NC(=O)c2cc(NC(=O)[C@H]3[C@H](c4ccc(F)c(C(F)(F)F)c4)C3(Cl)Cl)ccc2Cl)c1Cl [F1412, N-(3-Acetamido-2,4-dichlorophenyl)-2-chloro-5-((1R,3R)-2,2-dichloro-3-(4-fluoro-3-(trifluoromethyl)phenyl)cyclopropane-1-carboxamido)benzamide] |  |  |  |  | 50 to 100 | 50 to 100 | 
7 | Nc1c(F)c(F)c(F)c(NC(=O)c2cc(NC(=O)[C@H]3[C@H](c4cc(Cl)cc(Cl)c4)C3(Cl)Cl)ccc2Cl)c1F (relative stereo) [F1022, trans-N-(3-Amino-2,4,5,6-tetrafluorophenyl)-2-chloro-5-(2,2-dichloro-3-(3,5-dichlorophenyl)cyclopropane-1-carboxamido)benzamide] | 50 to 100 | 50 to 100 |  |  |  |  | 
8 | CC(NNC(=O)c1cc(NC(=O)[C@H]2[C@H](c3cc(Cl)cc(Cl)c3)C2(Cl)Cl)ccc1Cl)c1ccccc1 (relative stereo) [F2548, trans-2,2-Dichloro-N-(4-chloro-3-(2-(1-phenylethyl)hydrazine-1-carbonyl)phenyl)-3-(3,5-dichlorophenyl)cyclopropane-1-carboxamide] |  |  | 50 to 100 | 50 to 100 |  |  | 
9 | CC(C)(C)OC(=O)N(C(=O)OC(C)(C)C)c1c(F)ccc(NC(=O)c2cc(NC(=O)[C@H]3[C@H](c4cccc(C(F)(F)F)c4)C3(Cl)Cl)ccc2Cl)c1F [F1665, tert-Butyl N-tert-butoxycarbonyl-N-[3-[[2-chloro-5-[[(1R,3R)-2,2-dichloro-3-[3-(trifluoromethyl)phenyl]cyclopropanecarbonyl]amino]benzoyl]amino]-2,6-difluoro-phenyl]carbamate] |  |  |  |  | 50 to 100 | 50 to 100 | 
10 | O=C(NNC(=O)C(C(F)(F)F)C(F)(F)F)c1cc(NC(=O)[C@H]2[C@H](c3cc(Cl)cc(Cl)c3)C2(Cl)Cl)ccc1Cl (relative stereo) [F2532, trans-2,2-Dichloro-N-(4-chloro-3-(2-(3,3,3-trifluoro-2-(trifluoromethyl)propanoyl)hydrazine-1-carbonyl)phenyl)-3-(3,5-dichlorophenyl)cyclopropane-1-carboxamide] |  |  | 50 to 100 | 50 to 100 |  |  | 
11 | O=C(Nc1ccc(F)c(NC(=O)C(F)(F)F)c1F)c1cc(NC(=O)[C@H]2[C@H](c3cc(Cl)cc(Cl)c3)C2(Cl)Cl)cc(F)c1Cl [F1330, 2-Chloro-5-((1R,3R)-2,2-dichloro-3-(3,5-dichlorophenyl)cyclopropane-1-carboxamido)-N-(2,4-difluoro-3-(2,2,2-trifluoroacetamido)phenyl)-3-fluorobenzamide] | 50 to 100 | 50 to 100 |  |  |  |  | 
12 | Cc1cc(NCC(C)c2ccccc2)ccc1NC(=O)c1cc(NC(=O)[C@H]2[C@H](c3cc(Cl)cc(Cl)c3)C2(Cl)Cl)ccc1Cl (relative stereo) [F1178, trans-2-Chloro-5-(2,2-dichloro-3-(3,5-dichlorophenyl)cyclopropane-1-carboxamido)-N-(2-methyl-4-((2-phenylpropyl)amino)phenyl)benzamide] | 50 to 100 | 50 to 100 |  |  |  |  | 
13 | O=C(Nc1c(F)ccc(NC(=O)c2cc(NC(=O)[C@H]3[C@H](c4cc(Cl)c(Cl)c(Cl)c4)C3(Cl)Cl)ccc2Cl)c1F)c1ccco1 [F1648, N-(3-(2-Chloro-5-((1R,3R)-2,2-dichloro-3-(3,4,5-trichlorophenyl)cyclopropane-1-carboxamido)benzamido)-2,6-difluorophenyl)furan-2-carboxamide] |  |  |  |  | 50 to 100 | 50 to 100 | 
14 | O=C(NCC(F)(F)F)c1cc(NC(=O)[C@H]2[C@H](c3ccc(F)c(Cl)c3)C2(Cl)Cl)cc(Cl)c1F (relative stereo) [F2045, trans-3-Chloro-5-(2,2-dichloro-3-(3-chloro-4-fluorophenyl)cyclopropane-1-carboxamido)-2-fluoro-N-(2,2,2-trifluoroethyl)benzamide] |  |  | 50 to 100 | 50 to 100 |  |  | 
15 | O=C(Nc1ccc(F)c(NC(=O)C2(F)OC(F)(F)C(F)(F)C(F)(F)C2(F)F)c1F)c1cc(NC(=O)[C@H]2[C@H](c3ccc(F)c(C(F)(F)F)c3)C2(Cl)Cl)ccc1Cl (stereo partly drawn) [F1783, N-(3-(2-Chloro-5-((1R,3R)-2,2-dichloro-3-(4-fluoro-3-(trifluoromethyl)phenyl)cyclopropane-1-carboxamido)benzamido)-2,6-difluorophenyl)-2,3,3,4,4,5,5,6,6-nonafluorotetrahydro-2H-pyran-2-carboxamide] |  |  | 50 to 100 | 50 to 100 |  |  | 
16 | CC(=O)Nc1ccc(NC(=O)c2c(Cl)ccc(NC(=O)[C@H]3[C@H](c4ccc(F)c(Cl)c4)C3(Cl)Cl)c2Cl)cc1 (relative stereo) [F1102, trans-N-(4-Acetamidophenyl)-2,6-dichloro-3-(2,2-dichloro-3-(3-chloro-4-fluorophenyl)cyclopropane-1-carboxamido)benzamide] | 50 to 100 | 50 to 100 |  |  |  |  | 
17 | O=C(Nc1c(F)cc(NC(=O)C(Cl)Cl)cc1F)c1cc(NC(=O)[C@H]2[C@H](c3ccc(Cl)c(Cl)c3)C2(Cl)Cl)ccc1Cl [F1272, 2-Chloro-5-((1R,3R)-2,2-dichloro-3-(3,4-dichlorophenyl)cyclopropane-1-carboxamido)-N-(4-(2,2-dichloroacetamido)-2,6-difluorophenyl)benzamide] | 50 to 100 | 50 to 100 |  |  |  |  | 
18 | Cc1cc(NC(=O)[C@H]2[C@H](c3ccc(F)c(C(F)(F)F)c3)C2(Cl)Cl)cc(C(=O)Nc2ccc(F)c(N)c2F)c1Cl [F1458, N-(3-Amino-2,4-difluorophenyl)-2-chloro-5-((1R,3R)-2,2-dichloro-3-(4-fluoro-3-(trifluoromethyl)phenyl)cyclopropane-1-carboxamido)-3-methylbenzamide] |  |  |  |  | 50 to 100 | 50 to 100 | 
19 | O=C(Nc1cc(NC(=O)C(F)F)c(F)cc1F)c1cc(NC(=O)[C@H]2[C@H](c3cc(Cl)c(Cl)c(Cl)c3)C2(Cl)Cl)ccc1Cl [F1518, 2-Chloro-5-((1R,3R)-2,2-dichloro-3-(3,4,5-trichlorophenyl)cyclopropane-1-carboxamido)-N-(5-(2,2-difluoroacetamido)-2,4-difluorophenyl)benzamide] |  |  |  |  | 50 to 100 | 50 to 100 | 
20 | O=C(Nc1cc(NC(=O)C(F)(F)F)c(F)cc1F)c1cc(NC(=O)[C@H]2[C@H](c3ccc(Cl)c(Cl)c3)C2(Cl)Cl)cc(F)c1F [F1582, 5-((1R,3R)-2,2-Dichloro-3-(3,4-dichlorophenyl)cyclopropane-1-carboxamido)-N-(2,4-difluoro-5-(2,2,2-trifluoroacetamido)phenyl)-2,3-difluorobenzamide] |  |  |  |  | 50 to 100 | 50 to 100 | 
